Laboratory results as given in ChEMBL document CHEMBL1201862, “PubChem BioAssay data set” (2004).
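Cultured in 96-well plates, cells were exposed to test compound for 48 hours across five concentrations. GI50 marks 50% less growth.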 Active and inactive are the calls of the source. No stated cut-off is given here; in the data, active = GI50 up to about 1.1 µM and inactive = higher.

What was measured:
Assay in all cases: NCI tumour cell line growth inhibition, 48 h
M14 = system: M14
OVCAR-5 = system: OVCAR-5
UACC-62 = system: UACC-62
SK-MEL-2 = system: SK-MEL-2
A498 = system: A498
NCI-H460 = system: NCI-H460
HOP-62 = system: HOP-62
MDA-MB-231 = system: MDA-MB-231
BT-549 = system: BT-549
A549 = system: A549
SNB-19 = system: SNB-19
HCT-15 = system: HCT-15
U-251 = system: U-251
TK-10 = system: TK-10
SK-OV-3 = system: SK-OV-3
MDA-MB-435 = system: MDA-MB-435
HOP-92 = system: HOP-92
ACHN = system: ACHN
COLO 205 = system: COLO 205
HCC 2998 = system: HCC 2998
SF-295 = system: SF-295
UACC-257 = system: UACC-257
UO-31 = system: UO-31
PC-3 = system: PC-3
RXF 393 = system: RXF 393
HCT-116 = system: HCT-116
LOX IMVI = system: LOX IMVI
SF-268 = system: SF-268
RPMI-8226 = system: RPMI-8226
CCRF-CEM = system: CCRF-CEM
OVCAR-3 = system: OVCAR-3
DU-145 = system: DU-145
NCI/ADR-RES = system: NCI/ADR-RES
EKVX = system: EKVX
OVCAR-4 = system: OVCAR-4
NCI-H23 = system: NCI-H23
SNB-75 = system: SNB-75
T47D = system: T47D
KM12 = system: KM12
MCF7 = system: MCF7
CAKI-1 = system: CAKI-1
NCI-H226 = system: NCI-H226
786-0 = system: 786-0
SK-MEL-28 = system: SK-MEL-28
SK-MEL-5 = system: SK-MEL-5
SW-620 = system: SW-620
MOLT-4 = system: MOLT-4
HL-60 = system: HL-60
K562 = system: K562
HT-29 = system: HT-29
SF-539 = system: SF-539
Malme-3M = system: Malme-3M
SR = system: SR
NCI-H522 = system: NCI-H522
Hs-578T = system: Hs-578T
SN12C = system: SN12C
OVCAR-8 = system: OVCAR-8
IGROV-1 = system: IGROV-1

CN(C)C(=O)C(F)(F)C(c1ccc(C(F)(F)F)cc1)C1C(=O)N(C)C(=O)N(C)C1=O (stereo not given)
GI50 (M14): > 100 µM (inactive) | GI50 (OVCAR-5): > 100 µM (inactive) | GI50 (UACC-62): > 100 µM (inactive) | GI50 (SK-MEL-2): > 100 µM (inactive) | GI50 (A498): > 100 µM (inactive) | GI50 (NCI-H460): > 100 µM (inactive) | GI50 (HOP-62): > 100 µM (inactive) | GI50 (MDA-MB-231): > 100 µM (inactive) | GI50 (BT-549): > 100 µM (inactive) | GI50 (A549): > 100 µM (inactive) | GI50 (SNB-19): > 100 µM (inactive) | GI50 (HCT-15): > 100 µM | GI50 (U-251): > 100 µM (inactive) | GI50 (TK-10): > 100 µM (inactive) | GI50 (SK-OV-3): > 100 µM (inactive) | GI50 (MDA-MB-435): > 100 µM (inactive) | GI50 (HOP-92): > 100 µM (inactive) | GI50 (ACHN): > 100 µM (inactive) | GI50 (COLO 205): > 100 µM (inactive) | GI50 (HCC 2998): > 100 µM (inactive) | GI50 (SF-295): > 100 µM (inactive) | GI50 (UACC-257): > 100 µM (inactive) | GI50 (UO-31): > 100 µM (inactive) | GI50 (PC-3): > 100 µM (inactive) | GI50 (RXF 393): 78.3 µM (inactive) | GI50 (HCT-116): > 100 µM (inactive) | GI50 (LOX IMVI): > 100 µM (inactive) | GI50 (SF-268): > 100 µM (inactive) | GI50 (RPMI-8226): > 100 µM (inactive) | GI50 (CCRF-CEM): > 100 µM (inactive) | GI50 (OVCAR-3): > 100 µM (inactive) | GI50 (DU-145): > 100 µM (inactive) | GI50 (NCI/ADR-RES): > 100 µM (inactive) | GI50 (EKVX): > 100 µM (inactive) | GI50 (OVCAR-4): > 100 µM (inactive) | GI50 (NCI-H23): > 100 µM (inactive) | GI50 (SNB-75): > 100 µM (inactive) | GI50 (T47D): > 100 µM (inactive) | GI50 (KM12): > 100 µM (inactive) | GI50 (MCF7): > 100 µM (inactive) | GI50 (CAKI-1): > 100 µM (inactive) | GI50 (NCI-H226): > 100 µM (inactive) | GI50 (786-0): > 100 µM (inactive) | GI50 (SK-MEL-28): > 100 µM (inactive) | GI50 (SK-MEL-5): > 100 µM (inactive) | GI50 (SW-620): > 100 µM (inactive)

COc1ccc(-c2cc(-c3ccc(Nc4ccnc5cc(C(F)(F)F)ccc45)cc3)nc(N)c2C#N)cc1
GI50 (M14): 96.8 µM (inactive) | GI50 (OVCAR-5): > 100 µM (inactive) | GI50 (UACC-62): 40.6 µM (inactive) | GI50 (SK-MEL-2): 45.2 µM (inactive) | GI50 (A498): > 100 µM (inactive) | GI50 (NCI-H460): > 100 µM (inactive) | GI50 (HOP-62): 43.6 µM (inactive) | GI50 (MDA-MB-231): 99.8 µM (inactive) | GI50 (BT-549): 46.2 µM (inactive) | GI50 (A549): > 100 µM (inactive) | GI50 (MOLT-4): 95.5 µM (inactive) | GI50 (SNB-19): 42.7 µM (inactive) | GI50 (HCT-15): 60.5 µM | GI50 (U-251): 75 µM (inactive) | GI50 (HL-60): > 100 µM (inactive) | GI50 (TK-10): > 100 µM (inactive) | GI50 (SK-OV-3): > 100 µM (inactive) | GI50 (MDA-MB-435): > 100 µM (inactive) | GI50 (HOP-92): 26.1 µM (inactive) | GI50 (ACHN): > 100 µM (inactive) | GI50 (COLO 205): > 100 µM (inactive) | GI50 (HCC 2998): > 100 µM (inactive) | GI50 (SF-295): 32 µM (inactive) | GI50 (K562): > 100 µM (inactive) | GI50 (UO-31): > 100 µM (inactive) | GI50 (HT-29): > 100 µM (inactive) | GI50 (SF-539): 34.6 µM (inactive) | GI50 (PC-3): 45.1 µM (inactive) | GI50 (RXF 393): > 100 µM (inactive) | GI50 (HCT-116): 23.2 µM (inactive) | GI50 (LOX IMVI): 33.3 µM (inactive) | GI50 (RPMI-8226): > 100 µM (inactive) | GI50 (OVCAR-3): 14.6 µM (inactive) | GI50 (DU-145): > 100 µM (inactive) | GI50 (NCI/ADR-RES): > 100 µM (inactive) | GI50 (EKVX): > 100 µM (inactive) | GI50 (Malme-3M): > 100 µM (inactive) | GI50 (SR): 26.7 µM (inactive) | GI50 (OVCAR-4): 27.7 µM (inactive) | GI50 (NCI-H23): > 100 µM (inactive) | GI50 (SNB-75): 31 µM (inactive) | GI50 (T47D): 46.1 µM (inactive) | GI50 (KM12): 86.9 µM (inactive) | GI50 (MCF7): 35.9 µM (inactive) | GI50 (CAKI-1): > 100 µM (inactive) | GI50 (NCI-H226): > 100 µM (inactive) | GI50 (786-0): > 100 µM (inactive) | GI50 (SK-MEL-28): 32.5 µM (inactive) | GI50 (SK-MEL-5): > 100 µM (inactive) | GI50 (SW-620): 62.1 µM (inactive)

C1=CN2C[n+]3cccc(OCc4ccccc4)c3N=C2C(OCc2ccccc2)=C1
GI50 (M14): 16.4 µM (inactive) | GI50 (NCI-H522): 2.65 µM (inactive) | GI50 (OVCAR-5): 52 µM (inactive) | GI50 (UACC-62): 11.9 µM (inactive) | GI50 (SK-MEL-2): 11.7 µM (inactive) | GI50 (A498): 85.9 µM (inactive) | GI50 (NCI-H460): 32.6 µM (inactive) | GI50 (HOP-62): 17.6 µM (inactive) | GI50 (MDA-MB-231): 16.8 µM (inactive) | GI50 (BT-549): 0.344 µM (active) | GI50 (A549): 19.5 µM (inactive) | GI50 (SNB-19): 5.18 µM (inactive) | GI50 (HCT-15): > 100 µM | GI50 (U-251): 4.51 µM (inactive) | GI50 (HL-60): 0.142 µM (active) | GI50 (TK-10): 56 µM (inactive) | GI50 (SK-OV-3): > 100 µM (inactive) | GI50 (MDA-MB-435): 14.4 µM (inactive) | GI50 (HOP-92): 12.5 µM (inactive) | GI50 (ACHN): > 100 µM (inactive) | GI50 (COLO 205): 3.88 µM (inactive) | GI50 (HCC 2998): 5.83 µM (inactive) | GI50 (SF-295): 6.84 µM (inactive) | GI50 (K562): < 0.01 µM (active) | GI50 (UACC-257): 8.71 µM (inactive) | GI50 (UO-31): > 100 µM (inactive) | GI50 (HT-29): 8.04 µM (inactive) | GI50 (SF-539): 4.25 µM (inactive) | GI50 (PC-3): 26.5 µM (inactive) | GI50 (RXF 393): 44.9 µM (inactive) | GI50 (Hs-578T): 2.36 µM (inactive) | GI50 (HCT-116): 23.3 µM (inactive) | GI50 (LOX IMVI): 20.8 µM (inactive) | GI50 (SF-268): 6.25 µM (inactive) | GI50 (RPMI-8226): 2.84 µM (inactive) | GI50 (OVCAR-3): 5.14 µM (inactive) | GI50 (DU-145): 6.92 µM (inactive) | GI50 (NCI/ADR-RES): > 100 µM (inactive) | GI50 (EKVX): 24.2 µM (inactive) | GI50 (Malme-3M): 12.3 µM (inactive) | GI50 (OVCAR-4): 4.81 µM (inactive) | GI50 (NCI-H23): 10.3 µM (inactive) | GI50 (SNB-75): 20.1 µM (inactive) | GI50 (T47D): 12.8 µM (inactive) | GI50 (SN12C): 3.43 µM (inactive) | GI50 (MCF7): 13.5 µM (inactive) | GI50 (OVCAR-8): 17.4 µM (inactive) | GI50 (IGROV-1): 11.5 µM (inactive) | GI50 (CAKI-1): 22 µM (inactive) | GI50 (NCI-H226): 29.4 µM (inactive) | GI50 (786-0): 15.3 µM (inactive) | GI50 (SK-MEL-28): 14.2 µM (inactive) | GI50 (SK-MEL-5): 5 µM (inactive) | GI50 (SW-620): 11.9 µM (inactive)
